Source: patent US8383601B2, “Tissue specific gene therapy treatment” (Thomas Jefferson University, priority 2006, dated 2013)
Where no end group is shown, it is not given here.

Tests used:
[1] = tested on: rat MI model (chronic HF); assay: Catheter-based in vivo hemodynamic measurements in post-MI HF rats; settings: mean ± SEM
Description: (§1) Rat MI model and cardiac gene delivery—All animal procedures and experiments were performed in accordance with the guidelines of the IACUC of Thomas Jefferson University. MI was induced as described previously using a model of cryoinfarction that produces a highly reproducible loss of myocardium^13. Briefly, anesthetized adult male (250-300 g) rats were intubated and mechanically ventilated and anaesthesia was maintained using a 2% isoflurane (v/v) oxygen mixture. The heart was exposed through a median sternotomy and the pericardium was opened. A 6-0 suture was placed at the apex of the LV. An 8 mm diameter cylindrical stamp was cooled in liquid nitrogen and then pressed on the LV free wall. Cryothermia was applied by use of three freeze cycles of 1 min each that was interrupted by one minute thawing intervals^13,15.
Myocardial gene transfer to 10 week post-MI rats was achieved as previously described^13,15 with some modifications. Briefly, under general anesthesia (2% isoflurane, v/v) a midline cervical incision was made and the animal was cooled to 29° C. using ice packs. A P-50 catheter (Becton Dickinson, Sparks, Md.) was advanced into the aortic root via the right carotid artery and the ascending aorta was looped using 2-0 silk. 1.2 mg adenosine was injected into the right ventricle using a 30½ G needle. Next, the ascending aorta was clamped and 2.5×10^11 particles of the AAV construct and 8 μg of substance P (Sigma) were rapidly injected into the aortic root allowing for coronary perfusion. After 2 min the aortic clamp was released, a bolus of dobutamine (30 μg; intra-arterial) was administered and the animal was re-warmed using a heating pad. The incision was closed and animals were transferred back to their cages receiving appropriate analgesia. […]
Catheter-based in vivo hemodynamic measurements—Cardiac function was measured 8 weeks following gene therapy (18 weeks after MI) in anesthetized rats (2% isoflurane; v/v) using 2 F pressure catheter (SPR-320; Millar instruments, Houston, Tex.). The pressure transducer was placed into the LV cavity through the right carotid artery and the right external jugular vein was cannulated with a P-10 catheter (Becton Dickinson, Sparks, Md.) that was used for isoproterenol administration (333 ng/kg BW) as previously described^13,15.

[2] = tested on: rat MI model (chronic HF); assay: Echocardiography of global cardiac function in post-MI HF rats; type: in vivo
Description: as §1
Myocardial gene transfer to 10 week post-MI rats was achieved as previously described^13,15 with some modifications. […]
Echocardiography—To measure global cardiac function, echocardiography was performed 10 and 18 weeks post-MI by use of the VisualSONICS VeVo 770 imaging system with a 710 scanhead in anesthetized animals (2% isoflurane, v/v). The internal diameter of the LV was measured in the short-axis view from M-mode recordings in end diastole and end systole. […]

[3] = tested on: rat MI model (chronic HF); assay: Heart weight to body weight ratio in post-MI HF rats; type: in vivo; settings: 18 weeks post-MI; mean ± SEM
Description: Myocardial gene transfer to 10 week post-MI rats was achieved as previously described^13,15 with some modifications. Briefly, under general anesthesia (2% isoflurane, v/v) a midline cervical incision was made and the animal was cooled to 29° C. using ice packs. A P-50 catheter (Becton Dickinson, Sparks, Md.) was advanced into the aortic root via the right carotid artery and the ascending aorta was looped using 2-0 silk. 1.2 mg adenosine was injected into the right ventricle using a 30½ G needle. Next, the ascending aorta was clamped and 2.5×10^11 particles of the AAV construct and 8 μg of substance P (Sigma) were rapidly injected into the aortic root allowing for coronary perfusion. […]

[4] = tested on: adult rat ventricular cardiomyocytes; assay: Diastolic cell length of isolated cardiomyocytes; type: cell-based; settings: 2 hrs after cardiomyocyte isolation, 3 animals per group, 18 weeks post-MI; mean ± SEM
Description: Isolation of adult rat ventricular cardiomyocytes—Ca^2+-tolerant adult cardiomyocytes were isolated from LVs 8 weeks after gene delivery (18 weeks post-MI) by a standard enzymatic digestion procedure and cultivated as described^13,15. […] Length of isolated cardiomyocytes was determined on enlarged digital photos using Olympus Fluoview 4.3 software.

[5] = tested on: adult rat ventricular cardiomyocytes; assay: Ca2+-transient analyses and contractile parameters of isolated adult rat cardiomyocytes; type: cell-based; settings: 8 weeks after treatment; 1 Hz, 2.5 mM [Ca2+]e; for AAV6/S100A1 infected (green) cells only
[6] = tested on: LV mRNA (S100A1, SERCA2a, PLB, ANF, TGFβ1, Collagen I); assay: Real-time RT-PCR of cardiac expression of key genes in LV; type: in vivo, rat; settings: 18 weeks post-MI
Description: RNA isolation and real-time RT-PCR—Total RNA was isolated from LV as well as from isolated cardiomyocytes using either Ultraspec® (Biotec) or Trizol® (Life Technologies). cDNA was synthesized by reverse transcription of the RNA with Superscript II® (Life Technologies) as recommended. Real-time RT-PCR was performed in duplicates with a 1:100 dilution of the cDNA on a MyIQ real time PCR detection system (BioRad) with the SYBR® Green PCR master mix (Applied Biosystems) as described previously^13,15. The oligonucleotide primers to examine expression of genes were as follows: ANF, forward primer 5′-[…]-3′ (SEQ. ID. No. 13), reverse primer 5′-[…]-3′ (SEQ. ID. No. 14); SERCA2a, forward primer 5′-[…]-3′ (SEQ. ID. No. 15), reverse primer 5′-[…]-3′ (SEQ. ID. No. 16); PLB, forward primer 5′-[…]-3′ (SEQ. ID. No. 17), reverse primer 5′-[…]-3′(SEQ. ID. No. 18); S100A1, forward primer 5′-[…]-3′ (SEQ. ID. No. 19), reverse primer 5′-[…]-3′ (SEQ. ID. No. 20); TGF-131, forward primer 5′-[…]-3′ (SEQ. ID. No. 21), reverse primer 5′-[…]-3′(SEQ. ID. No. 22); Collagen type I, forward primer 5′-[…]-3′ (SEQ. ID. No. 23), reverse primer 5′-AGGTGATGTTCTGGG-3′(SEQ. ID. No. 24); GRK2, forward primer 5′-[…]-3′ (SEQ. ID. No. 25), reverse primer 5′-[…]-3′ (SEQ. ID. No. 26). For normalization, 18S rRNA was used, forward primer 5′-[…]-3′ (SEQ. ID. No. 27), reverse primer 5′-GGACATCTAAGGGCATCAC-3′ (SEQ. ID. No. 28). PCR conditions were 95° C., 3 min, and 40 cycles of 95° C., 10 sec; 60.5° C., 45 sec. Specificity of PCR products were confirmed by gel electrophoresis.

[7] = tested on: mouse thoracic aorta; assay: In vitro physiology: relaxation/contraction response of thoracic aorta rings
Description: In Vitro physiology —The relaxation/contraction response of thoracic aortas of WT or SKO mice was examined using a commercially available mounting apparatus attached to a force transducer (ADInstruments). […] Data were normalized to the PE-induced EC50 contraction which were similar between all aorta tested.

[8] = tested on: endothelial surface of thoracic aorta; assay: NO release from mouse aorta; settings: ACh 10^−5 M
Description: NO release from mouse aorta—NO release from the endothelial surface of aorta was measured in vitro using an Apollo 4000 “Free Radical Analyzer” (WPI, Sarasota, Fla.) as previously described with some modifications.^52 Briefly, thoracic aorta of WT (n=4) and SKO (n=4) mice were carefully isolated and pinned down in KH solution after connective tissue was thoroughly removed. NO was measured under baseline conditions as well as after ACh stimulation (10^−5 M). Two measurements were recorded per animal and condition and NO values were normalized to the weight of the vascular tissue.

[9] = tested on: S100A1 mRNA expression in RCEC; assay: Regulation of S100A1 expression in endothelial cells; type: cell-based, rat; settings: 10^−7 M, 60 hours, versus PBS
Description: Regulation of S100A1 expression in HCAEC—After growing HCAEC or RCEC to 90% confluency full medium was replaced by basal EBM-2 medium with 0.5% serum and cells were stimulated with endothelin-1 (ET-1), angiotensin II (AngII) (both 10^−7 M) or PBS for 60 h. Cells were harvested for either mRNA or protein isolation and S100A1 expression was standardized against 18S rRNA or GAPDH.
RNA Isolation and Real-time RT-PCR—Total RNA was isolated from either HCAEC or […] using Trizol® (Life Technologies). cDNA was synthesized by reverse transcription of the RNA with Superscript II® (Life Technologies) as recommended. Real-time PCR was performed in duplicates with a 1:100 dilution of the cDNA on a MyIQ real time PCR detection system (BioRad) with the SYBR® Green PCR master mix (Applied Biosystems). The oligonucleotide primers to examine expression of genes were as follows: S100A1, forward primer 5′-[…]-3′ (SEQ. ID. No. 19), reverse primer 5′-[…]-3′ (SEQ. ID. No. 20). For normalization, 18S rRNA was used, forward primer 5′-[…]-3′ (SEQ. ID. No. 27), reverse primer 5′-GGACATCTAAGGGCATCAC-3′ (SEQ. ID. No. 28). PCR conditions were 95° C., 3 min, and 40 cycles of 95° C., 10 sec; 63.5° C., 45 sec. Specificity of PCR products were confirmed by gel electrophoresis.

[10] = tested on: HCAEC; assay: S100A1 overexpression and NO production in HCAEC; type: cell-based, human; settings: HCAEC pre-incubated with 10^−4 M 20 minutes prior to ACh
Description: S100A1 overexpression and NO production in HCAEC—S100A1 overexpression in HCAEC was achieved by electrical transfection of the plasmid pAdTrack-S100A1 (10 μg), which encodes for GFP and S100A1 both driven by individual cytomegalovirus (CMV) promoters. PBS and the plasmid pAdTrack (10 μg) were used as controls. 500,000 HCAEC were used for each transfection using Nucleofactor® (AMAXA biosystems) according to the manufacturers instructions and plated on 6 well dishes. 18 hours after transfection cells were stimulated using 10^−5M ACh or PBS for 1 hour. […] NO in the supernatant was measured indirectly using the Nitrate/Nitrite fluorometric assay kit (Cayman, Chemical) according to company recommendations. Transfection was controlled by GFP expression as described previously and cells were harvested for mRNA isolation. Experiments were run in triplicate and 3 individual experiments were performed.

[11] = Isoproterenol (333 ng/kg BW), 8 weeks after gene therapy in HF
[12] = basal, 8 weeks after gene therapy in HF

## COCCc1ccc(OCC(O)CNC(C)C)cc1 (centres unmarked) [metoprolol]
[1]; [11]
  HR: 308 ± 6^& min^−1
  LV +dP/dt: 9403 ± 491 mmHg/s
  LV −dP/dt: 5571 ± 333 mmHg/s
  LVEDP: 2.8 ± 0.4 mmHg
  LVESP: 105 ± 3.7 mmHg
[1]; basal, 8 weeks after gene therapy in HF (18 weeks post-MI)
  HR: 264 ± 8^& min^−1
[1]; [12]
  LV +dP/dt: 4948 ± 225 mmHg/s
  LV −dP/dt: 4418 ± 223 mmHg/s
  LVEDP: 4.6 ± 0.5 mmHg
  LVESP: 109 ± 3.1 mmHg
[2]; 18 week post-MI compared to pre-treatment (10 week post-MI) values
  LV chamber dilatation (LV diastolic dimension): significantly attenuated further LV chamber dilatation
[2]; HF rats, metoprolol only (with GFP)
  change in cardiac function (EF) over the 2 month treatment period: no improvement
[3]
  HW/BW ratio: 2.77 ± 0.05 g/kg
[4]
  Cell length (diastolic): 118.9 ± 2.3 μm
[5]
  contractile properties and [Ca2+]i transients of isolated failing myocytes: did not affect contractile properties
[6]
  Collagen I mRNA levels: significantly reduced
  TGFβ1 mRNA levels: significantly reduced
  ventricular ANF mRNA expression: significantly reduced
[6]; standardized to 18S rRNA
  PLB mRNA levels: attenuated the down-regulation
  SERCA2a mRNA levels: attenuated the down-regulation
  cardiac S100A1 mRNA: attenuated the down-regulation

## CC(=O)OCC[N+](C)(C)C [ACh, acetylcholine]
[7]; SKO aortas (n=6)
  maximal response to ACh: 55±6.49 % of PE-precontraction
[7]; WT control aortas (n=6)
  maximal response to ACh: 14±2.41 % of PE-precontraction
[8]; SKO mice (n=4), second value
  ACh stimulated aortic endothelial NO release: 134.5±25.3 nM NO/mg tissue
[8]; WT mice (n=4)
  ACh stimulated aortic endothelial NO release: 368.2±68.1 nM NO/mg tissue

## endothelin-1 (CSCSSLMDKECVYFCHLDIIW; ends and bridges not checked; cysteine pairing not given here; UniProt P05305 53-73, looked up) [ET-1]
[9]
  S100A1 mRNA levels: significantly reduced

## NCCOB(c1ccccc1)c1ccccc1 [2-APB, 2-aminoethoxydiphenylborate]
[10]
  ACh-stimulated NO generation after IP3R blockage: abolished NO generation

## angiotensin II (DRVYIHPF; Angiotensin-2; UniProt P01019 25-32, looked up) [Ang II]
[9]
  S100A1 mRNA levels: significantly reduced

## CNC[C@H](O)c1cccc(O)c1 [PE, phenylephrine]
[7]; Mus musculus, read-out: EC50 of the PE response (contraction)
  EC50: 300 nM
